Source: US20200155475A1, “Transdermal Drug Delivery System” (Avro Life Sciences, Inc., priority 2017, published 2020)

How the values were obtained:
[1] = Protocol: (§1) Modified Franz Diffusion Cells were filled with 55 ml of phosphate buffer, and a skin simulating membrane was placed in each cell at air-water interface and secured with a holed cap. The cells were placed into a water bath and the temperature was equilibrated to 38° C. The drug-loaded patch was gently placed onto the membrane and pressed down lightly. At different time points, the drug solution was collected and replaced with fresh buffer, and ultraviolet (UV) absorbance was measured at 200-300 nm with clean quartz cuvettes, using standard curves to determine drug concentrations and cumulative drug release percentages over time.
as §1, with “The permeation or flux of several drugs transdermally delivered to the skin was measured in vitro as a function of time using an artificial skin simulating membrane attached to a Franz diffusion cell at air-water interface. […] Modified” for “Modified”

[2] = Percentage diffusion of 4-aminopyridine through the transdermal drug delivery system over time; assay type: in vitro ADME
Protocol: (§2) The patch in the transdermal drug delivery system consisted of 23% (w/w) glycerol, 16% (w/w) gum Arabic, 11% (w/w) medium molecular weight chitosan, and 48% (w/w) lactic acid. The patch was prepared by casting the liquid matrix gel upon a suitable Teflon backing layer and drying for 18 hours at 55° C. The resulting diffusion profiles were obtained by conducting the same experiment three times. The patch samples indicate the number of times that the same experiment was conducted.
The patch in the transdermal drug delivery system consisted of 50% (w/w) glycerol, 14% (w/w) PVP, 18% (w/w) medium molecular weight chitosan, and 18% (w/w) lactic acid. The patch was prepared by casting the liquid matrix gel upon a suitable Teflon backing layer and drying for 3 hours at 80° C. The resulting diffusion profiles were obtained by conducting the same experiment eight times. The patch samples indicate the number of times that the same experiment was conducted.
as §2, with “36%” for “23%”, “15.3% PVP, 0.7%” for “16%”, “9.5%” for “11%”, “38.5%” for “48%”, “5” for “18”, “80°” for “55°”
The percentage diffusion of 4-aminopyridine through the transdermal drug delivery system provided herein was measured over time, using different patch compositions. […] The patch was prepared by casting the liquid matrix gel upon a suitable Teflon backing layer and drying for 18 hours at 55° C.
The patch was prepared by casting the liquid matrix gel upon a suitable Teflon backing layer and drying for 3 hours at 80° C.
The patch was prepared by casting the liquid matrix gel upon a suitable Teflon backing layer and drying for 5 hours at 80° C.

[3] = Further experiments: permeation of small molecules through the patch matrix; conditions: molecules trapped in polymer matrix

Row | Compound | diffusion of drug from the patch through skin simulating membrane over time (system permeable / impermeable) [1] | permeation into skin and bloodstream through the patch matrix [3] | further results
1 | Nc1ccncc1 [4-aminopyridine] | permeable |  | permeation and diffusion through patch over time ([2]; patch: 23% glycerol, 16% gum Arabic, 11% medium MW chitosan, 48% lactic acid, dried 18 hours at 55° C., FIG. 4): allows permeation and diffusion; permeation and diffusion through patch over time ([2]; patch: 36% glycerol, 15.3% PVP, 0.7% gum Arabic, 9.5% medium MW chitosan, 38.5% lactic acid, dried 5 hours at 80° C., FIG. 6): allows permeation and diffusion; permeation and diffusion through patch over time ([2]; patch: 50% glycerol, 14% PVP, 18% medium MW chitosan, 18% lactic acid, dried 3 hours at 80° C., FIG. 5): allows permeation and diffusion
2 | O=C1CCc2ccc(OCCCCN3CCN(c4cccc(Cl)c4Cl)CC3)cc2N1 [aripiprazole, Aripiprazole] | impermeable |  | 
3 | CC(NCCn1cnc2c1c(=O)n(C)c(=O)n2C)C(O)c1ccccc1 (stereo not shown) [cafedrine] |  | cannot permeate | 
4 | CN(C)CCC[C@@]1(c2ccc(F)cc2)OCc2cc(C#N)ccc21.O=C(O)C(=O)O [escitalopram oxalate, Escitalopram Oxalate] | permeable |  | 
5 | CC(Cc1ccccc1)NCCn1cnc2c1c(=O)n(C)c(=O)n2C (stereo not shown) [fenethylline] |  | cannot permeate | 
6 | CC(=O)CCCCn1c(=O)c2c(ncn2C)n(C)c1=O [pentoxifyline] |  | cannot permeate | 
7 | Cn1c(=O)c2c(ncn2CCNCC(O)c2ccc(O)c(O)c2)n(C)c1=O (stereo not shown) [theodrenaline] |  | cannot permeate | 
